The values that follow come from patent US11453666B2, “Autotaxin inhibitory compounds” (Cancer Research Technology Limited, priority 2015, dated 2022).

pIC50: −log10 of the molar value.

For one test, the target named is human recombinant ATX (Homo sapiens, UniProt Q13822). Nature of the test: Autotaxin (ATX) activity Quanta Red assay. It counts as biochemical. The note with it: Table 2: additional compounds tested for ATX activity (Quanta Red Assay); read-out: Activity. Put shortly:
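Recombinant human ATX reaction stopped after 2 h with Quanta Red stop solution; fluorescence read at […]. Controls with DMSO, with and without ATX; IC50 in duplicate.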
Consider `O=C(CCc1nc2cccnc2n1Cc1ccccc1)NCc1ccc(Cl)cc1` [Example 217, 3-(3-Benzyl-3H-imidazo[4,5-b]pyridin-2-yl)-N-(4-chloro-benzyl)-propionamide], for which the pIC50 was 7.54.
The same measure, in the same setting: with `COc1ccc(Cn2c(CCC(=O)NCc3cccc(Cl)c3)nc3cccnc32)cc1` [Example 231, N-(3-Chloro-benzyl)-3-[3-(4-methoxy-benzyl)-3H-imidazo[4,5-b]pyridin-2-yl]-propionamide] the figure was 6.70; with `O=C(CCc1nc2cccnc2n1Cc1ccccc1)NCc1cccc(Cl)c1` [Example 232, 3-(3-Benzyl-3H-imidazo[4,5-b]pyridin-2-yl)-N-(3-chloro-benzyl)-propionamide], 6.22.

The test is the same for the next values; noted with them: Table 3: commercially available compounds tested for Autotaxin activity (Quanta Red assay); read-out: Activity.
As to `COc1ccc(Cn2c(CCC(=O)NCCc3ccccc3)nc3cccnc32)cc1` [Example 237, 3-[3-(4-Methoxy-benzyl)-3H-imidazo[4,5-b]pyridin-2-yl]-N-phenethyl-propionamide, reference compound], the pIC50 is 6.64.

Staying with this test, now noted: human recombinant ATX 0.8 μg/mL, 2 hours at room temperature, IC50 determined in duplicate; read-out: Activity (ATX activity, Quanta Red assay; IC50).
With `C[C@H](NC(=O)CSc1nc2cccnc2n1Cc1ccc(OC(F)(F)F)cc1)c1ccc(F)cc1` [Example 145, N—[(S)-1-(4-fluoro-phenyl)-ethyl]-2-[3-(4-trifluoromethoxy-benzyl)-3H-imidazo[4,5-b]pyridin-2-ylsulfanyl]-acetamide], the pIC50 is 8.70.
As for `C[C@H](NC(=O)NCc1nc2cccnc2n1Cc1ccc(F)cc1)c1ccc(Cl)cc1` [Example 157, 1-[(S)-1-(4-Chloro-phenyl)-ethyl]-3-[3-(4-fluoro-benzyl)-3H-imidazo[4,5-b]pyridin-2-ylmethyl]-urea], the pIC50 was 8.00.

The test is the same for the next values; noted with them: read-out: Activity (ATX activity, Quanta Red assay; IC50).
Regarding `O=C(CCc1nc2cccnc2n1Cc1ccccc1)NCC1CCCCC1` [Example 111, 3-(3-Benzyl-3H-imidazo[4,5-b]pyridin-2-yl)-N-cyclohexylmethyl-propionamide], the pIC50 was 6.39.
On the same count and under the same terms, with `Cc1cnc2c(c1)nc(CCC(=O)N[C@@H](C)c1ccc(N3CCN[C@@H](C)C3)cc1)n2Cc1ccc(OC(F)(F)F)cc1` [Example 192, N-{(S)-1-[4-((S)-3-Methyl-piperazin-1-yl)-phenyl]-ethyl}-3-[6-methyl-3-(4-trifluoromethoxy-benzyl)-3H-imidazo[4,5-b]pyridin-2-yl]-propionamide] the figure was 7.25; with `C[C@H](NC(=O)CCc1cc2cccnc2n1Cc1ccc(F)cc1)c1ccc(F)cc1` [Example 140, 3-[1-(4-Fluoro-benzyl)-1H-pyrrolo[2,3-b]pyridin-2-yl]-N-[(S)-1-(4-fluoro-phenyl)-ethyl]-propionamide], 7.89.
Regarding `C[C@H](NC(=O)CCc1nc2cccnc2n1Cc1ccc(OC(F)(F)F)cc1)c1ccc(N2CCCNCC2)cc1` [Example 170, N-[(S)-1-(4-[1,4]Diazepan-1-yl-phenyl)-ethyl]-3-[3-(4-trifluoromethoxy-benzyl)-3H-imidazo[4,5-b]pyridin-2-yl]-propionamide], the pIC50 is 8.70.
Same read-out and setting: with `COc1ccc(Cn2c(CCC(=O)NCc3ccc4c(ccn4C)c3)nc3cccnc32)cc1` [Example 105, 3-[3-(4-Methoxy-benzyl)-3H-imidazo[4,5-b]pyridin-2-yl]-N-(1-methyl-1H-indol-5-ylmethyl)-propionamide] the figure was 7.06; with `C[C@H](NC(=O)CCc1nc2cccnc2n1Cc1ccc(OCc2ccccc2)cc1)c1ccc(Cl)cc1` [Example 76, 3-[3-(4-Benzyloxy-benzyl)-3H-imidazo[4,5-b]pyridin-2-yl]-N-[(S)-1-(4-chloro-phenyl)-ethyl]-propionamide], 6.30; with `O=C(CCc1nc2cccnc2n1Cc1ccc(OC(F)(F)F)cc1)N[C@H](CO)Cc1ccc(O)cc1` [Example 205, N-[(S)-1-Hydroxymethyl-2-(4-hydroxy-phenyl)-ethyl]-3-[3-(4-trifluoromethoxy-benzyl)-3H-imidazo[4,5-b]pyridin-2-yl]-propionamide], 6.73.
Still for that read-out and setting: with `C[C@H](NC(=O)CCc1nc2cccnc2n1Cc1ccc(OCc2ccccc2)cc1)c1ccc(F)cc1` [Example 80, 3-[3-(4-Benzyloxy-benzyl)-3H-imidazo[4,5-b]pyridin-2-yl]-N-[(S)-1-(4-fluoro-phenyl)-ethyl]-propionamide] the figure was 6.07.
For `O=C(CCc1nc2cccnc2n1Cc1ccc(OC(F)(F)F)cc1)Nc1nccs1` [Example 69, N-Thiazol-2-yl-3-[3-(4-trifluoromethoxy-benzyl)-3H-imidazo[4,5-b]pyridin-2-yl]-propionamide], the pIC50 was 6.67.
On the same count and under the same terms, with `C[C@H](NC(=O)CCc1cc2cc(F)cnc2n1Cc1ccc(Cl)cc1)c1ccc(F)cc1` [Example 141, 3-[1-(4-Chloro-benzyl)-5-fluoro-1H-pyrrolo[2,3-b]byridin-2-yl]-N-[(S)-1-(4-fluoro-phenyl)-ethyl]-propionamide] the figure was 7.85.
With `C[C@@H](NC(=O)CCc1nc2cccnc2n1Cc1ccc(OC(F)(F)F)cc1)c1ccc(Cl)cc1` [Example 49, N-[(R)-1-(4-Chloro-phenyl)-ethyl]-3-[3-(4-trifluoromethoxy-benzyl)-3H-imidazo[4,5-b]pyridin-2-yl]-propionamide], the pIC50 was 7.68.
`CC[C@H](NC(=O)CCc1nc2ccncc2n1Cc1ccc(F)cc1)c1ccccc1` [Example 127, 3-[3-(4-Fluoro-benzyl)-3H-imidazo[4,5-c]pyridin-2-yl]-N-((S)-1-phenyl-propyl)-propionamide]: the pIC50 is 7.85.
On to `O=C(CCc1nc2cccnc2n1Cc1ccc(F)c(F)c1)N[C@@H]1c2ccccc2C[C@H]1O` [Example 59, 3-[3-(3,4-Difluoro-benzyl)-3H-imidazo[4,5-b]pyridin-2-yl]-N-((1R,2R)-2-hydroxy-indan-1-yl)-propionamide], for which the pIC50 is 7.20.
Same read-out and setting: in the case of `Cc1ccc2nc(CCC(=O)N[C@@H](C)c3ccc(F)cc3)n(Cc3ccc(F)cc3)c2n1` [Example 121, 3-[3-(4-fluoro-benzyl)-5-methyl-3H-imidazo[4,5-b]pyridin-2-yl]-N—[(S)-1-(4-fluoro-phenyl)-ethyl]-propionamide] it was 6.57.
Still for that read-out and setting: with `COc1ccc(CNC(=O)CCc2nc3cccnc3n2Cc2cccc(F)c2)cc1` [Example 110, 3-[3-(3-Fluoro-benzyl)-3H-imidazo[4,5-b]pyridin-2-yl]-N-(4-methoxy-benzyl)-propionamide] the figure was 6.58.
On the same count and under the same terms, with `O=C(CCc1nc2cccnc2n1Cc1ccc(OC(F)(F)F)cc1)N[C@@H](CO)c1ccccc1` [Example 7, N-((R)-2-Hydroxy-1-phenyl-ethyl)-3-[3-(4-trifluoromethoxy-benzyl)-3H-imidazo[4,5-b]pyridin-2-yl]-propionamide] the figure was 9.00.
For `COc1cccc([C@H](C)NC(=O)NCc2nc3cccnc3n2Cc2ccc(F)cc2)c1` [Example 165, 1-[3-(4-Fluoro-benzyl)-3H-imidazo[4,5-b]pyridin-2-ylmethyl]-3-[(S)-1-(3-methoxy-phenyl)-ethyl]-urea], the pIC50 is 6.29.
The same measure, in the same setting: with `O=C(CCc1nc2cccnc2n1Cc1ccc(OC(F)(F)F)cc1)NCc1ccc(OC(F)(F)F)cc1` [Example 22, N-(4-Trifluoromethoxy-benzyl)-3-[3-(4-trifluoromethoxy-benzyl)-3H-imidazo[4,5-b]pyridin-2-yl]-propionamide] the figure was 8.40; with `O=C(CCc1nc2cccnc2n1Cc1ccc(OC(F)(F)F)cc1)NCC1CCCCC1` [Example 42, N-Cyclohexylmethyl-3-[3-(4-trifluoromethoxy-benzyl)-3H-imidazo[4,5-b]pyridin-2-yl]-propionamide], 7.96.
Same read-out and setting: in the case of `C[C@H](NC(=O)CCc1nc2cccnc2n1Cc1ccc(F)cc1)c1ccc(N2CCC(CO)CC2)cc1` [Example 181, 3-[3-(4-Fluoro-benzyl)-3H-imidazo[4,5-b]pyridin-2-yl]-N-{(S)-1-[4-(4-hydroxymethyl-piperidin-1-yl)-phenyl]-ethyl}-propionamide] it was 8.15; in that of `O=C(NCc1nc2cccnc2n1Cc1ccc(F)c(F)c1)N[C@@H](CO)c1ccccc1` [Example 162, 1-[3-(3,4-difluoro-benzyl)-3H-imidazo[4,5-b]pyridin-2-ylmethyl]-3-((R)-2-hydroxy-1-phenyl-ethyl)-urea], 6.68.
`COc1ccc(Cn2c(CCC(=O)N[C@@H](C)c3ccccc3)nc3cccnc32)cc1` [Example 92, 3-[3-(4-Methoxy-benzyl)-3H-imidazo[4,5-b]pyridin-2-yl]-N-((S)-1-phenyl-ethyl)-propionamide]: the pIC50 is 7.77.
With `CN(C)CCCOc1ccc(CNC(=O)CCc2nc3ccncc3n2Cc2ccc(OC(F)(F)F)cc2)cc1` [Example 128, N-[4-(3-Dimethylamino-propoxy)-benzyl]-3-[3-(4-trifluoromethoxy-benzyl)-3H-imidazo[4,5-c]pyridin-2-yl]-propionamide], the pIC50 is 7.77.
For `CC(C)(C)OC(=O)N1CCC[C@@H](CNC(=O)CCc2nc3cccnc3n2Cc2ccc(OC(F)(F)F)cc2)C1` [Example 54, (S)-3-({3-[3-(4-Trifluoromethoxy-benzyl)-3H-imidazo[4,5-b]pyridin-2-yl]-propionylamino}-methyl)-piperidine-1-carboxylic acid tert-butyl ester], the pIC50 is 7.40.
With `Cc1ccc([C@H](C)NC(=O)CCc2nc3cccnc3n2Cc2ccc(F)c(F)c2)cc1` [Example 85, 3-[3-(3,4-Difluoro-benzyl)-3H-imidazo[4,5-b]pyridin-2-yl]-N-((S)-1-p-tolyl-ethyl)-propionamide], the pIC50 is 8.40.
Same read-out and setting: with `C[C@H](NC(=O)CCc1nc2cccnc2n1Cc1ccc(F)cc1)c1ccc(F)cc1` [Example 88, 3-[3-(4-Fluoro-benzyl)-3H-imidazo[4,5-b]pyridin-2-yl]-N-[(S)-1-(4-fluoro-phenyl)-ethyl]-propionamide] the figure was 8.22; with `O=C(CCc1nc2cccnc2n1Cc1ccc(F)c(F)c1)N[C@H]1CCc2ccccc21` [Example 55, 3-[3-(3,4-Difluoro-benzyl)-3H-imidazo[4,5-b]pyridin-2-yl]-N-(S)-indan-1-yl-propionamide], 7.40.
